Common to all, as to assay: Method 1: intracellular Ca2+ release (FLIPR, Calcium 5) in recombinant CHO-K1 cells
What all share (assay type): cell-based

For one assay, the target named is T1, human S1PR3 receptor (Homo sapiens, UniProt Q99500).
T1 construct: host or cells: CHO-K1
The following applies: (1): determined with method 1; read-out: S1P3 EC50. A digest of the protocol:
(§1)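 Potency here reflects Ca2+ release in recombinant CHO-K1 cells carrying Gq/i5, measured by Calcium 5 fluorescence on FLIPR at RT in pH 7.4 Hepes-buffered HBSS with probenecid. EC50 values were fitted after scaling to phospho-fingolimod.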

The next assay deals with T2, human S1PR4 receptor (Homo sapiens, UniProt O95977).
T2 construct: host or cells: CHO-K1
T2 sequence (O95977 1-384): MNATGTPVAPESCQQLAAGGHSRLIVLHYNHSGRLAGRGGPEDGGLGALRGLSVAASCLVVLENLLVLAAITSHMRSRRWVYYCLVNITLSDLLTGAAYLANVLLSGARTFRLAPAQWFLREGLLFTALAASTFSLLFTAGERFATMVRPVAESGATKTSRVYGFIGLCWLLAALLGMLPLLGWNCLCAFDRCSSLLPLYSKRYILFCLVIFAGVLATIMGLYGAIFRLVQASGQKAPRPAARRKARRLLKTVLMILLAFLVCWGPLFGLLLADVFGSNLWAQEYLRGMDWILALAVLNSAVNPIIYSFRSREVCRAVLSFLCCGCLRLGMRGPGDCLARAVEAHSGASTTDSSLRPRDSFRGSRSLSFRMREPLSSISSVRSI
The following applies: (1): determined with method 1; read-out: S1P4 EC50. A digest of the protocol:
as §1

The target of the next assay is T3, human S1PR5 receptor (Homo sapiens, UniProt Q9H228).
T3 construct: host or cells: CHO-K1
T3 sequence (Q9H228 whole entry): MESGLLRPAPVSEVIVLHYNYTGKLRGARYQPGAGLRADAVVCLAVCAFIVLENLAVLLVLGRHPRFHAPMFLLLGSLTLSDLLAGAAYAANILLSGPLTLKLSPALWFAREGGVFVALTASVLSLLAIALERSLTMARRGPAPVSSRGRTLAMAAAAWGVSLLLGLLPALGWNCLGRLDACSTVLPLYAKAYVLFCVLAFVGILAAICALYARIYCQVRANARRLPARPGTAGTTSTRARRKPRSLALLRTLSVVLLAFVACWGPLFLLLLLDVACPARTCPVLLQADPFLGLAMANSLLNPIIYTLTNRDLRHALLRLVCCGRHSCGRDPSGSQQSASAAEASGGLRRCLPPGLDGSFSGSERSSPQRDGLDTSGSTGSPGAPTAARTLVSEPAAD
The note with it: agonist potency, determined with method 1 (symbols A-D); read-out: S1P5 EC50 range. A digest of the protocol: as §1

For a further assay, the target named is T4, human S1PR1 receptor (Homo sapiens, UniProt P21453).
T4 construct: host or cells: CHO-K1
T4 sequence (P21453 whole entry): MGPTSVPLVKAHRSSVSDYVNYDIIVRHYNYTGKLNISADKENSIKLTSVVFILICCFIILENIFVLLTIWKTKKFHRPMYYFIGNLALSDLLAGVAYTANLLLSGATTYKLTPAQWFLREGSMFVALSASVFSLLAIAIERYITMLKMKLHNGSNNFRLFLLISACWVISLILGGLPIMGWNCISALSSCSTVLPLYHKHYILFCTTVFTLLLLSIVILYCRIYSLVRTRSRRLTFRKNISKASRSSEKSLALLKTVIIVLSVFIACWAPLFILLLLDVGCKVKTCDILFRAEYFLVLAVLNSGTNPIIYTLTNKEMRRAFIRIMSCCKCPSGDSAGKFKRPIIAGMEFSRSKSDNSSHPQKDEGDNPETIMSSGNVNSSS
The note with it: (1): determined with method 1; read-out: S1P1 EC50. The procedure, abridged:
as §1

The structures appear in SMILES notation. Where a name gives a salt, the structure may show the parent alone. Some results are limits rather than exact numbers.

T1 sequence (Q99500 whole entry): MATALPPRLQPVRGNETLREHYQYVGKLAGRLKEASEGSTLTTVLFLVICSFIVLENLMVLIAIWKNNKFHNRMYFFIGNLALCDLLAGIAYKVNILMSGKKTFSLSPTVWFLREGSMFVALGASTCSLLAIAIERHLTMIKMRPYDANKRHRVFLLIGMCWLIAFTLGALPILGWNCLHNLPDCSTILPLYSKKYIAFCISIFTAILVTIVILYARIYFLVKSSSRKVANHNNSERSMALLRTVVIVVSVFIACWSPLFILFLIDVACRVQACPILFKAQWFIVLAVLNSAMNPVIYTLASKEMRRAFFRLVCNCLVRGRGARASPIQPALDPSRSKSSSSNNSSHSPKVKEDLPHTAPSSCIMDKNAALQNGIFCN

`O=C(O)CN1CCc2nc(-c3ccc(OCc4cccc(Cl)c4)cc3)ncc2C1` [Compound 32, 2-(2-(4-((3-chlorobenzyl)oxy)phenyl)-7,8-dihydropyrido[4,3-d]pyrimidin-6(5H)-yl)acetic acid]: the EC50 (as a rule, the concentration needed to bring the measured effect to its halfway point) on human S1PR3 receptor is over 1 µM; on human S1PR4 receptor it was over 1 µM; at human S1PR5 receptor, 0.1 to 1 µM; at human S1PR1 receptor it was over 1 µM.
With `Cc1cc(-c2ccc3c(n2)CCN(CCCC(=O)O)C3)ccc1OCc1ccccc1` [Compound 114, 4-(2-(4-(benzyloxy)-3-methylphenyl)-7,8-dihydro-1,6-naphthyridin-6(5H)-yl)butanoic acid], the concentration for a half-maximal effect (EC50) on human S1PR3 receptor was over 1 µM; on human S1PR4 receptor, over 1 µM; at human S1PR5 receptor it was under 0.01 µM; at human S1PR1 receptor it was over 1 µM.
Regarding `Cc1cc(-c2ncc3c(n2)CCN(CC(C)CC(=O)O)C3)ccc1OCc1ccccc1` (stereo not drawn) [Compound 251, 4-(2-(4-(benzyloxy)-3-methylphenyl)-7,8-dihydropyrido[4,3-d]pyrimidin-6(5H)-yl)-3-methylbutanoic acid], the EC50 at human S1PR3 receptor is over 1 µM; at human S1PR4 receptor, over 1 µM; at human S1PR5 receptor, under 0.01 µM; on human S1PR1 receptor, over 1 µM.
With `O=C(O)CCN1CCc2nc(-c3ccc(OCc4ccc(Cl)cc4)cc3)cnc2C1` [Compound 178, 3-(2-(4-((4-chlorobenzyl)oxy)phenyl)-7,8-dihydropyrido[3,4-b]pyrazin-6(5H)-yl)propanoic acid], the EC50 is over 1 µM at human S1PR3 receptor, over 1 µM at human S1PR4 receptor, under 0.01 µM on human S1PR5 receptor and over 1 µM on human S1PR1 receptor.
In the case of `O=C(O)CCN1CCc2nc(-c3ccc(OCc4cccc(Cl)c4)cc3)c(F)cc2C1` [Compound 189, 3-(2-(4-((3-chlorobenzyl)oxy)phenyl)-3-fluoro-7,8-dihydro-1,6-naphthyridin-6(5H)-yl)propanoic acid], the EC50 on human S1PR3 receptor is over 1 µM; on human S1PR4 receptor, over 1 µM; on human S1PR5 receptor it was under 0.01 µM; on human S1PR1 receptor, over 1 µM.
Regarding `CCc1cccc(Cl)c1COc1ccc(-c2ncc3c(n2)CCN(CC(C)C(=O)O)C3)cc1` (stereo not drawn) [Compound 18, 3-(2-(4-((2-chloro-6-ethylbenzyl)oxy)phenyl)-7,8-dihydropyrido[4,3-d]pyrimidin-6(5H)-yl)-2-methylpropanoic acid], the EC50 was over 1 µM on human S1PR3 receptor, under 1 µM at human S1PR4 receptor, 0.01 to 0.1 µM on human S1PR5 receptor and over 1 µM on human S1PR1 receptor.
In the case of `Cc1cc(-c2cc3c(cn2)CN(CCC(=O)O)CC3)ccc1OCc1ccc(C(F)(F)F)cc1` [Compound 173, 3-(6-((4(4-trifluoromethylbenzyl)oxy)-3-methylphenyl)-3,4-dihydro-2,7-naphthyridin-2(1H)-yl)propanoic acid], the EC50 on human S1PR3 receptor was over 1 µM; on human S1PR4 receptor, over 1 µM; on human S1PR5 receptor it was under 0.01 µM; at human S1PR1 receptor, over 1 µM.
With `Cc1ccccc1COc1ccc(-c2ncc3c(n2)CCN(C[C@@H](C)CC(=O)O)C3)cc1C` [Compound 249], the 50% effective concentration (EC50) at human S1PR3 receptor was over 1 µM; on human S1PR4 receptor it was over 1 µM; at human S1PR5 receptor, under 0.01 µM; on human S1PR1 receptor, over 1 µM.
For `O=C(O)C1CC(N2CCc3nc(C#Cc4ccc(Cl)cc4)ccc3C2)C1` (stereo not drawn) [Compound 120, 3-(2-((4-chlorophenyl)ethynyl)-7,8-dihydro-1,6-naphthyridin-6(5H)-yl)cyclobutanecarboxylic acid], the EC50 is over 1 µM at human S1PR3 receptor, over 1 µM at human S1PR4 receptor, 1 to 10 µM on human S1PR5 receptor and over 1 µM on human S1PR1 receptor.
On to `CC(CC(=O)O)CN1CCc2nc(-c3ccc(OCc4ccccc4C(F)(F)F)cc3F)ncc2C1` (stereo not drawn) [Compound 260, 4-[2-[2-fluoro-4-[[2-(trifluoromethyl)phenyl]methoxy]phenyl]-7,8-dihydro-5H-pyrido[4,3-d]pyrimidin-6-yl]-3-methyl-butanoic acid 2,2,2-trifluoroacetic acid salt], for which the EC50 on human S1PR3 receptor was over 1 µM; on human S1PR4 receptor, over 1 µM; on human S1PR5 receptor, 0.01 to 0.1 µM; at human S1PR1 receptor, over 1 µM.
Regarding `CCOc1ccc(C#Cc2ncc3c(n2)CCN(C2CC(C(=O)O)C2)C3)cc1` (stereo not drawn) [Compound 56, 3-(2-((4-ethoxyphenyl)ethynyl)-7,8-dihydropyrido[4,3-d]pyrimidin-6(5H)-yl)cyclobutanecarboxylic acid], the EC50 is over 1 µM at human S1PR3 receptor, over 1 µM on human S1PR4 receptor, 1 to 10 µM at human S1PR5 receptor and over 1 µM on human S1PR1 receptor.
`CC(CCC(=O)O)N1CCc2nc(-c3ccc(OCc4ccccc4)cc3)ncc2C1` (stereo not drawn) [Compound 64, 4-(2-(4-(benzyloxy)phenyl)-7,8-dihydropyrido[4,3-d]pyrimidin-6(5H)-yl)pentanoic acid]: the EC50 at human S1PR3 receptor was over 1 µM; at human S1PR4 receptor it was over 1 µM; at human S1PR5 receptor, under 0.01 µM; at human S1PR1 receptor, over 1 µM.
As to `CC(CC(=O)O)CN1CCc2nc(-c3ccc(OCc4cccc(C(F)(F)F)c4)cc3)ncc2C1` (stereo not drawn) [Compound 238, 3-methyl-4-(2-(4-((3-(trifluoromethyl)benzyl)oxy)phenyl)-7,8-dihydropyrido[4,3-d]pyrimidin-6(5H)-yl)butanoic acid], the concentration giving a half-maximal response (EC50) on human S1PR3 receptor is over 1 µM; on human S1PR4 receptor, under 1 µM; on human S1PR5 receptor it was under 0.01 µM; at human S1PR1 receptor, under 1 µM.
As to `O=C(O)CCN1CCc2nc(-c3ccc(OCc4ccc(Cl)cc4)cc3)ncc2C1` [Compound 74, 3-(2-(4-((4-chlorobenzyl)oxy)phenyl)-7,8-dihydropyrido[4,3-d]pyrimidin-6(5H)-yl)propanoic acid], the EC50 is over 1 µM on human S1PR3 receptor, over 1 µM on human S1PR4 receptor, under 0.01 µM at human S1PR5 receptor and over 1 µM on human S1PR1 receptor.
For the molecule `CC(CCN1CCc2nc(-c3ccc(OCc4ccccc4)cc3)c(F)cc2C1)C(=O)O` (stereo not drawn) [Compound 180, 4-(2-(4-(benzyloxy)phenyl)-3-fluoro-7,8-dihydro-1,6-naphthyridin-6(5H)-yl)-2-methylbutanoic acid], the EC50 at human S1PR3 receptor is over 1 µM; on human S1PR4 receptor, over 1 µM; at human S1PR5 receptor, under 0.01 µM; on human S1PR1 receptor it was under 1 µM.
On to `O=C(O)CCN1CCc2nc(-c3ccc(OCc4cccc(F)c4)cc3F)ccc2C1` [Compound 145, 3-(2-(2-fluoro-4-((3-fluorobenzyl)oxy)phenyl)-7,8-dihydro-1,6-naphthyridin-6(5H)-yl)propanoic acid], for which the EC50 is over 1 µM at human S1PR3 receptor, over 1 µM on human S1PR4 receptor, 0.01 to 0.1 µM on human S1PR5 receptor and over 1 µM at human S1PR1 receptor.
Regarding `CCc1cccc(Cl)c1COc1ncc2c(n1)CCN(CCC(=O)O)C2` [Compound 96, 3-(2-((2-chloro-6-ethylbenzyl)oxy)-7,8-dihydropyrido[4,3-d]pyrimidin-6(5H)-yl)propanoic acid], the EC50 is over 1 µM on human S1PR3 receptor, over 1 µM on human S1PR4 receptor, 1 to 10 µM at human S1PR5 receptor and over 1 µM on human S1PR1 receptor.
With `CC(CC(=O)O)CN1CCc2nc(-c3ccc(OCc4ccccc4Cl)cc3)ncc2C1` (stereo not drawn) [Compound 229, 4-[2-[4-[(2-chlorophenyl)methoxy]phenyl]-7,8-dihydro-5H-pyrido[4,3-d]pyrimidin-6-yl]-3-methyl-butanoic acid 2,2,2-trifluoroacetic acid salt], the EC50 on human S1PR3 receptor was over 1 µM; at human S1PR4 receptor, over 1 µM; at human S1PR5 receptor, under 0.01 µM; at human S1PR1 receptor it was under 1 µM.
On to `CC(CN1CCc2nc(-c3ccc(OCc4cc(Cl)cc(Cl)c4)cc3)ncc2C1)C(=O)O` (single isomer, unassigned) [Compound 19, 3-(2-(4-((3,5-dichlorobenzyl)oxy)phenyl)-7,8-dihydropyrido[4,3-d]pyrimidin-6(5H)-yl)-2-methylpropanoic acid], for which the EC50 is over 1 µM at human S1PR3 receptor, over 1 µM on human S1PR4 receptor, under 0.01 µM on human S1PR5 receptor and over 1 µM at human S1PR1 receptor.
For `CC(CC(=O)O)CN1CCc2nc(-c3ccc(OCc4ccccc4F)cc3)ncc2C1` (stereo not drawn) [Compound 235, 4-[2-[4-[(2-fluorophenyl)methoxy]phenyl]-7,8-dihydro-5H-pyrido[4,3-d]pyrimidin-6-yl]-3-methyl-butanoic acid 2,2,2-trifluoroacetic acid salt], the EC50 was over 1 µM at human S1PR3 receptor, over 1 µM at human S1PR4 receptor, under 0.01 µM at human S1PR5 receptor and under 1 µM at human S1PR1 receptor.
Consider `O=C(O)CN1CCc2nc(-c3ccc(OCc4ccc(Cl)c(Cl)c4)cc3)ncc2C1` [Compound 30, 2-(2-(4-((3,4-dichlorobenzyl)oxy)phenyl)-7,8-dihydropyrido[4,3-d]pyrimidin-6(5H)-yl)acetic acid], for which the EC50 at human S1PR3 receptor was over 1 µM; on human S1PR4 receptor it was over 1 µM; on human S1PR5 receptor, 0.01 to 0.1 µM; on human S1PR1 receptor, over 1 µM.

(Values after patent US10556907B2 (AbbVie Inc., priority 2015, dated 2020).)
